This is an account of results in publication PMC8421423, “Cellular model system to dissect the isoform-selectivity of Akt inhibitors” (Nature Communications, 2021).

What is called Ki is a dissociation constant, usually derived from enzyme kinetics or from competition with a known ligand. Usually kinact stands for the maximal first-order rate at which the target is inactivated.

Where “and” joins values, the source holds several entries; their conditions need not be identical. Equal entries are not always repeated. Where two headings read alike, the source gives them in different places.

One assay relates to pAkt1. Description: Western blot analysis, PANC1 cells. In kind it is cell-based, human. To be noted: PANC1, 24-h treatment. For orientation: Immunoblotting shows a protein as a band on a membrane.
Another assay addresses Akt1 (Homo sapiens, UniProt P31749). As to the kind of experiment: PhosphoSens continuous fluorometric kinetic enzyme assay.
For assay [1], the target named is T1, Akt2 (Homo sapiens, UniProt P31751). Description: ESI-MS/MS of tryptic digest (modified cysteine residues). More on the design: AKT2(2–447); His6 with TEV protease recognition site (N, cleaved yes); made in house; host or cells: Spodoptera frugiperda (Sf9). It counts as binding. Particulars: 5-fold molar excess of inhibitor. The method, then:
ESI-MS/MS samples were prepared as stated above followed by steps of reduction, alkylation, and tryptic digest. The digested samples were stage tip-purified using C18 tips and according to a protocol described elsewhere. Subsequently, samples were thawed, dissolved in 20 μL of 0.1% TFA in water, sonicated at room temperature for 15 min, and centrifuged at 15,000×g for 1 min shortly before analysis. In all, 3 μL of sample were loaded onto a pre-column cartridge and desalted for 5 min using 0.1% TFA in water as eluent at a flow rate of 30 μL/min. The samples were back-flushed from the pre-column to the nano-HPLC column during the whole analysis. Elution was performed using a gradient starting at 5% B with a final composition of 30% B after 35 min (flow rate 300 nL/min) using 0.1% formic acid in water as eluent A and 0.1% formic acid in acetonitrile as eluent B and a column temperature of 40 °C. […] During the complete gradient cycle, a typical TOP10 shot-gun proteomics method for the MS and MS/MS analysis was used. For full scan MS experiments a mass range of m/z 300–1650 was scanned with a resolution of 70000. MS/MS experiments were followed by up to 10 high energy collision dissociation (HCD) MS/MS scans with a resolution of 17,500 of the most intense at least doubly charged ions. Data evaluation was performed using MaxQuant[50]. […]
Target sequence in this assay (P31751 2-447): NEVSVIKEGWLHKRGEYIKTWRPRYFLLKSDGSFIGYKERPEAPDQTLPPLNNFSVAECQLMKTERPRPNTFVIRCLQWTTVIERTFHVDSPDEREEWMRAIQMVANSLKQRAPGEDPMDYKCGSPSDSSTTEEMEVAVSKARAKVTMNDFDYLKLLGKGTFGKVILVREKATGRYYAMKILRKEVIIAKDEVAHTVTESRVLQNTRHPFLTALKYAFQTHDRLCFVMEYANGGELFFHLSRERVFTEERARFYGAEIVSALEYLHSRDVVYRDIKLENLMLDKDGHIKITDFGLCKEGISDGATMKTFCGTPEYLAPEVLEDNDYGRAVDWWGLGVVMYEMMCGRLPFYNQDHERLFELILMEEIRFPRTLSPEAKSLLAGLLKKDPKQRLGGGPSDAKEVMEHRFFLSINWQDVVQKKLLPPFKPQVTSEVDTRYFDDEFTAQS

The target in assay [2] is Akt3 (Homo sapiens, UniProt Q9Y243). As to the kind of experiment: PhosphoSens continuous fluorometric kinetic enzyme assay.
Akt3 (Homo sapiens, UniProt Q9Y243), sequence (Q9Y243 whole entry): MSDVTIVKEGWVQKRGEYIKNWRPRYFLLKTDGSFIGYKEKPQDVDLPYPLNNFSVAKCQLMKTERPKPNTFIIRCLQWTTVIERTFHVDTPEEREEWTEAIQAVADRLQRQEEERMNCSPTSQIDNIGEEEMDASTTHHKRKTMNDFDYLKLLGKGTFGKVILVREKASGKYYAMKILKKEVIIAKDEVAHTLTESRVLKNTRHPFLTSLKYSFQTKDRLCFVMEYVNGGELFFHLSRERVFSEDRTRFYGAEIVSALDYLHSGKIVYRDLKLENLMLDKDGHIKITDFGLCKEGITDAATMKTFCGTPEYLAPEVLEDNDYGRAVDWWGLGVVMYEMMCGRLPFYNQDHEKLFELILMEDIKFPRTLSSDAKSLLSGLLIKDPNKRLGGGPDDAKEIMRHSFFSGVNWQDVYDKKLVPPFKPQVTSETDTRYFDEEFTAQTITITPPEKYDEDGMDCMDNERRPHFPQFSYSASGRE
Procedure: (§1) By addition of either 8 nM Akt1, 2 nM Akt2, or 5 nM Akt3 (final concentrations) the reactions were initiated. […] Afterwards the kobs-values were plotted versus the inhibitor concentrations [I] and then fit to the following hyperbolic Eq.
Assay [3] addresses T1, Akt2. Described as above.
Target sequence in this assay (P31751 whole entry): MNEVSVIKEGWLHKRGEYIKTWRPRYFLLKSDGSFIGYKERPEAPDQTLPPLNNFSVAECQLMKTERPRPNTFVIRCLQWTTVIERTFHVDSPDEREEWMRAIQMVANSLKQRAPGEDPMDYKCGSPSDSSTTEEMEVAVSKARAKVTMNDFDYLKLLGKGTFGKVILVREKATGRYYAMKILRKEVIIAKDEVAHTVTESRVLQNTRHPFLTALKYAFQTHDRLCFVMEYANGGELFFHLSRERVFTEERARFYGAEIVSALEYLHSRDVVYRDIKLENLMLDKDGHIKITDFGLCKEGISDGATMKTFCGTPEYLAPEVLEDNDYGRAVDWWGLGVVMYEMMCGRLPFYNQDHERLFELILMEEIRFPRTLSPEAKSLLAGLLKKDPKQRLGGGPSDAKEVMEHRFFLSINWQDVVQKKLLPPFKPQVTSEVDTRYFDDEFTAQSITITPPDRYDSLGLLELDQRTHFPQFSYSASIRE
Procedure: as §1
Assay [4] concerns the target T2, Akt3 (Homo sapiens, UniProt Q9Y243, E113A/E114A/E115A).
T2 construct: AKT3(2–443, E114/115/116A); His6 with TEV protease recognition site (N, cleaved yes); made in house; host or cells: Spodoptera frugiperda (Sf9)
As to the kind of experiment: ESI-MS/MS of tryptic digest (modified cysteine residues). In kind it is binding. To be noted: 5-fold molar excess of inhibitor. The method, then: ESI-MS/MS samples were prepared as stated above followed by steps of reduction, alkylation, and tryptic digest. The digested samples were stage tip-purified using C18 tips and according to a protocol described elsewhere. Subsequently, samples were thawed, dissolved in 20 μL of 0.1% TFA in water, sonicated at room temperature for 15 min, and centrifuged at 15,000×g for 1 min shortly before analysis. In all, 3 μL of sample were loaded onto a pre-column cartridge and desalted for 5 min using 0.1% TFA in water as eluent at a flow rate of 30 μL/min. The samples were back-flushed from the pre-column to the nano-HPLC column during the whole analysis. Elution was performed using a gradient starting at 5% B with a final composition of 30% B after 35 min (flow rate 300 nL/min) using 0.1% formic acid in water as eluent A and 0.1% formic acid in acetonitrile as eluent B and a column temperature of 40 °C. […] During the complete gradient cycle, a typical TOP10 shot-gun proteomics method for the MS and MS/MS analysis was used. For full scan MS experiments a mass range of m/z 300–1650 was scanned with a resolution of 70000. MS/MS experiments were followed by up to 10 high energy collision dissociation (HCD) MS/MS scans with a resolution of 17,500 of the most intense at least doubly charged ions. Data evaluation was performed using MaxQuant[50]. Spectra were searched against the specific Akt sequence and a contamination database using a false discovery rate of 1% on peptide and protein level using a decoy database for determination of the false discovery rate. For database search oxidation of methionine and N-terminal acetylation of proteins, carbamidomethylation of cysteines, and artificial modification of cysteines were defined as variable modifications.

Setting [5] is: Ki Akt3, Mean, mean of replicates.
The mark [6] stands for this setting: Ki Akt3, individual determinations, single replicates.
Setting [7] is: read-out: kinact /Ki Akt3, individual determinations, single replicates.
Where [8] appears, read: read-out: kinact Akt3, Mean, mean of replicates.
Where [9] appears, read: read-out: kinact Akt3, individual determinations, single replicates.
The mark [10] stands for this setting: Ki Akt2, Mean, mean of replicates.
[11] abbreviates: Ki Akt2, individual determinations, single replicates.
Setting [12] is: read-out: kinact Akt2, individual determinations, single replicates.

Akt1, sequence (P31749 whole entry): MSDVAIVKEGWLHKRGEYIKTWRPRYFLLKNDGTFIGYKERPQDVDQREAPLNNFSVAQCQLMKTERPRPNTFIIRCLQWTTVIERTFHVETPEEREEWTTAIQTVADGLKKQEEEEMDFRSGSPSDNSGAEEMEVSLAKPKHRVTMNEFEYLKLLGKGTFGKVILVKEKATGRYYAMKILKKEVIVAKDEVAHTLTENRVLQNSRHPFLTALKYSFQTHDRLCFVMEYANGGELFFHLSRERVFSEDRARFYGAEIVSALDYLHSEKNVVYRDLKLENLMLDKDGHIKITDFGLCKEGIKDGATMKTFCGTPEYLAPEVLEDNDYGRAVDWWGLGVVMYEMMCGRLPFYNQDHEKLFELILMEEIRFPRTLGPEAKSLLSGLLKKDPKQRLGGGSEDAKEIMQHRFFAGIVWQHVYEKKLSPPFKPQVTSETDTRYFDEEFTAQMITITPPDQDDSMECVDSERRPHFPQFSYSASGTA
T2 sequence (Q9Y243 2-443 E113A/E114A/E115A): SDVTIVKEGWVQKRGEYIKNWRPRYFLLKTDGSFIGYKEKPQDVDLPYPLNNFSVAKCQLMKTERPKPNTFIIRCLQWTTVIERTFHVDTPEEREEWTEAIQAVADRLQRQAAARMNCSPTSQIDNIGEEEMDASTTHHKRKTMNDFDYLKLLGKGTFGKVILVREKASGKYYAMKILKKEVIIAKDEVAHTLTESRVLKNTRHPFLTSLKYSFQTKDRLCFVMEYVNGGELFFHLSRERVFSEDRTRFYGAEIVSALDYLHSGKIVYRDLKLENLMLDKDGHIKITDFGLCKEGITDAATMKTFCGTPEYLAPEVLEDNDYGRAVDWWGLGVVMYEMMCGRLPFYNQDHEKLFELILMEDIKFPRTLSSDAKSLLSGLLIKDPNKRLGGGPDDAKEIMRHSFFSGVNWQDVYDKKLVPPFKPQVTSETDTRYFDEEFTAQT

As for `C=CC(=O)Nc1ccc2[nH]c(=O)n(C3CCN(Cc4ccc(-c5ncccc5-c5ccccc5)cc4)CC3)c2c1` [compound 1], the “pAkt1 level (immunoblot)” value with pAkt1 was “downregulation of pAkt1 and pAkt2”. Moreover, the inhibitory constant (Ki) at Akt1 (Ki Akt1) was 0.006 ± 0.002 µM; on Akt1 (Ki Akt1, Mean, mean of replicates), 0.00577 µM; on Akt1 (Ki Akt1, individual determinations, single replicates), 0.00395 µM and 0.00528 µM and 0.00808 µM. The kinact/KI came out at 38000 ± 10000 M⁻¹ s⁻¹ on Akt1 (read-out: kinact /Ki Akt1); 36000 M⁻¹ s⁻¹ at Akt1 (read-out: kinact /Ki Akt1, Mean, mean of replicates); 36000 M⁻¹ s⁻¹ at Akt1 (read-out: kinact /Ki Akt1, individual determinations, single replicates). For the same molecule, the kinact is 0.0002 s⁻¹ at Akt1 (read-out: kinact Akt1) and 0.00015 s⁻¹ at Akt1 (read-out: kinact Akt1, individual determinations, single replicates). Moreover, the “kinact Akt1, individual determinations” value on Akt1 (single replicates) was 0.015 min⁻¹ and 0.011 min⁻¹.
`C=CC(=O)Nc1ccc2[nH]c(=O)n(C3CCN(Cc4ccc(-c5ncc(Cc6cn[nH]c6)cc5-c5ccccc5)cc4)CC3)c2c1` [compound 14]: the “pAkt1 level (immunoblot)” value with pAkt1 is reported as “pAkt1 signal remained stable”. The “modified cysteine residues in Akt2 (MS/MS)” value on Akt2 [1] is “Cys297, Cys311, and Cys124”. In addition, the Ki at Akt3 [2] (Ki Akt3) was 0.029 ± 0.004 µM; at Akt3 [2] (setting [5]), 0.0293 µM; on Akt3 [2] (setting [6]), 0.0355 µM and 0.0277 µM and 0.03 µM and 0.0242 µM; on Akt2 [3] (Ki Akt2), 0.011 ± 0.002 µM; at Akt2 [3] (setting [10]) it was 0.0104 µM; at Akt2 [3] (setting [11]), 0.0132 µM and 0.008 µM and 0.0099 µM. In addition, the kinact/KI is 13000 ± 2000 M⁻¹ s⁻¹ at Akt3 [2] (read-out: kinact /Ki Akt3); 11000 M⁻¹ s⁻¹ on Akt3 [2] (setting [7]); 25000 ± 6000 M⁻¹ s⁻¹ at Akt2 [3] (read-out: kinact /Ki Akt2); 15000 M⁻¹ s⁻¹ at Akt2 [3] (read-out: kinact /Ki Akt2, individual determinations, single replicates). For the same molecule, the maximal inactivation rate constant (kinact) at Akt3 [2] (read-out: kinact Akt3) is 0.000367 s⁻¹; at Akt3 [2] (setting [8]), 0.000367 s⁻¹; on Akt3 [2] (setting [9]), 0.0004 s⁻¹; at Akt2 [3] (read-out: kinact Akt2) it was 0.000267 s⁻¹; at Akt2 [3] (read-out: kinact Akt2, Mean, mean of replicates), 0.00025 s⁻¹; on Akt2 [3] (setting [12]) it was 0.0002 s⁻¹. For the same molecule, the “kinact Akt3, individual determinations” value at Akt3 [2] (single replicates) was 0.023 min⁻¹ and 0.019 min⁻¹ and 0.022 min⁻¹. The “kinact Akt2, individual determinations” value on Akt2 [3] (single replicates) is 0.015 min⁻¹ and 0.017 min⁻¹.
`C=CC(=O)Nc1ccc2[nH]c(=O)n(C3CCN(Cc4ccc(-c5ncc(Cc6ccc(N)nc6)cc5-c5ccccc5)cc4)CC3)c2c1` [compound 20]: at Akt3 [4], the “modified cysteine residues in Akt3 (MS/MS)” value is given as “Cys293”. Further, the “kobs (mean)” value on Akt3 [2] (Akt3 + 20, concentration 2.5 nM) was 5.68e-05 s⁻¹; on Akt3 [2] (Akt3 + 20, concentration 4.9 nM), 4.71e-05 s⁻¹; on Akt3 [2] (Akt3 + 20, concentration 9.9 nM), 8.01e-05 s⁻¹; at Akt3 [2] (Akt3 + 20, concentration 39.5 nM) it was 0.00023 s⁻¹; on Akt3 [2] (Akt3 + 20, concentration 123.8 nM), 0.000418 s⁻¹; on Akt3 [2] (Akt3 + 20, concentration 247.5 nM) it was 0.000431 s⁻¹. Moreover, at Akt3 [2] (Akt3 + 20, concentration 371.3 nM), the “kobs (mean)” value came out at 0.000653 s⁻¹. Further, the inhibition constant (Ki) was 0.053 ± 0.004 µM at Akt3 [2] (Ki Akt3); 0.0701 µM on Akt3 [2] (setting [5]); 0.0715 µM and 0.0734 µM and 0.0654 µM on Akt3 [2] (setting [6]); 0.095 ± 0.014 µM at Akt2 [3] (Ki Akt2); 0.0944 µM on Akt2 [3] (setting [10]); 0.0986 µM and 0.101 µM and 0.0712 µM and 0.107 µM on Akt2 [3] (setting [11]). Moreover, the kinact/KI at Akt3 [2] (read-out: kinact /Ki Akt3) amounted to 10000 ± 3000 M⁻¹ s⁻¹; at Akt3 [2] (read-out: kinact /Ki Akt3, Mean, mean of replicates), 11000 M⁻¹ s⁻¹; on Akt3 [2] (setting [7]), 8000 M⁻¹ s⁻¹; at Akt2 [3] (read-out: kinact /Ki Akt2), 4000 ± 1000 M⁻¹ s⁻¹; on Akt2 [3] (read-out: kinact /Ki Akt2, Mean, mean of replicates), 4000 M⁻¹ s⁻¹. In addition, the kinact on Akt3 [2] (read-out: kinact Akt3) was 0.000733 s⁻¹; on Akt3 [2] (setting [8]), 0.000767 s⁻¹; at Akt3 [2] (setting [9]) it was 0.00055 s⁻¹; at Akt2 [3] (read-out: kinact Akt2), 0.00035 s⁻¹; at Akt2 [3] (setting [12]) it was 0.000383 s⁻¹. Also, the “kinact Akt3, individual determinations” value on Akt3 [2] (single replicates) was 0.061 min⁻¹. For the same molecule, the “kinact Akt2, individual determinations” value at Akt2 [3] (single replicates) is 0.025 min⁻¹ and 0.022 min⁻¹ and 0.015 min⁻¹.
